BindingDB's records for doi:10.1016/s0167-0115(98)00049-4 (Uppsala University, 1998)
Non-standard residues stand in square brackets, D forms with d. Residues, ends and D or L forms follow the SMILES beside them. Ahx = NCCCCCC(=O)O

Target: T1, Neuropeptide Y receptor type 2 (Cavia porcellus, UniProt Q9Z2D5)
T1 sequence (Q9Z2D5 whole entry): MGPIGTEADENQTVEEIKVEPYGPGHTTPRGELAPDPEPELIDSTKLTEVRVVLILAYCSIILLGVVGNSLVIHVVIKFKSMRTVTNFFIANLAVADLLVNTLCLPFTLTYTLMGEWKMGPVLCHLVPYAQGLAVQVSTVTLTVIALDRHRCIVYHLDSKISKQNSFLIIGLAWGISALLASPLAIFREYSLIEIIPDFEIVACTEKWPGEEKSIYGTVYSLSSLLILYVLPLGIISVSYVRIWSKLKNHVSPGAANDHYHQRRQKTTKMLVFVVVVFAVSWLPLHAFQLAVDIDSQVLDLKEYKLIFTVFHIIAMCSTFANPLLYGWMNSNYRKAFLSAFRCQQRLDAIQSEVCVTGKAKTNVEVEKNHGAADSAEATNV

Compound | Ki
CC[C@H](C)[C@H](NC(=O)[C@H](Cc1ccc(O)cc1)NC(=O)[C@H](Cc1c[nH]cn1)NC(=O)[C@H](CCCNC(=N)N)NC(=O)[C@H](CC(C)C)NC(=O)[C@H](C)NC(=O)[C@H](CO)NC(=O)[C@H](Cc1ccc(O)cc1)NC(=O)CCCCCNC(=O)[C@H](CC(N)=O)NC(=O)[C@H](CC(=O)O)NC(=O)[C@@H]1CCCN1C(=O)[C@H](CCCCN)NC(=O)[C@H](CO)NC(=O)[C@@H]1CCCN1C(=O)[C@@H](N)Cc1ccc(O)cc1)C(=O)N[C@@H](CC(N)=O)C(=O)N[C@@H](CC(C)C)C(=O)N[C@H](C(=O)N[C@H](C(=O)N[C@@H](CCCNC(=N)N)C(=O)N[C@@H](CCC(N)=O)C(=O)N[C@@H](CCCNC(=N)N)C(=O)N[C@@H](Cc1ccc(O)cc1)C(N)=O)[C@@H](C)O)[C@@H](C)CC [NPY8-20, Ahx] (H-YPSKPDN[Ahx]YSALRHYINLITRQRY-NH2) | 0.117 nM
CC[C@H](C)[C@H](NC(=O)[C@H](Cc1ccc(O)cc1)NC(=O)[C@H](Cc1cnc[nH]1)NC(=O)[C@H](CCCNC(=N)N)NC(=O)[C@H](CC(C)C)NC(=O)[C@H](C)NC(=O)[C@H](CO)NC(=O)[C@H](Cc1ccc(O)cc1)NC(=O)CCCCCNC(=O)[C@H](CC(N)=O)NC(=O)[C@H](CC(=O)O)NC(=O)[C@@H]1CCCN1C(=O)[C@H](CCCCN)NC(=O)[C@H](CO)NC(=O)[C@@H]1CCCN1C(=O)[C@@H](N)Cc1ccc(O)cc1)C(=O)N[C@@H](CC(N)=O)C(=O)N[C@@H](CC(C)C)C(=O)N[C@H](C(=O)N[C@H](C(=O)N[C@@H](CCCNC(=N)N)C(=O)N1CCC[C@H]1C(=O)N[C@@H](CCCNC(=N)N)C(=O)N[C@@H](Cc1ccc(O)cc1)C(N)=O)[C@@H](C)O)[C@@H](C)CC [NPY8-20, Pro34, Ahx] (H-YPSKPDN[Ahx]YSALRHYINLITRPRY-NH2) | 85.3 nM
H-INPIYRLRY-NH2 [NPY 28-36, [P30, Y32, L34]] | 295 nM

More lines, in order of falling Ki, values ahead:

Ki | Compound
1000 nM | H-APLEPEYPGDNATPEQMAQYAAELRRYINMLTRPRY-NH2 [CAS_59763-91-6]
0.181 nM | CC[C@H](C)[C@H](NC(=O)[C@H](Cc1ccc(O)cc1)NC(=O)[C@H](Cc1cnc[nH]1)NC(=O)[C@H](CCCNC(=N)N)NC(=O)CCCCCNC(=O)[C@H](CCCCN)NC(=O)[C@H](CO)NC(=O)[C@@H]1CCCN1C(=O)[C@@H](N)Cc1ccc(O)cc1)C(=O)N[C@@H](CC(N)=O)C(=O)N[C@@H](CC(C)C)C(=O)N[C@H](C(=O)N[C@H](C(=O)N[C@@H](CCCNC(=N)N)C(=O)N[C@@H](CCC(N)=O)C(=O)N[C@@H](CCCNC(=N)N)C(=O)N[C@@H](Cc1ccc(O)cc1)C(N)=O)[C@@H](C)O)[C@@H](C)CC [NPY5-24, Ahx] (H-YPSK[Ahx]RHYINLITRQRY-NH2)
0.136 nM | CC[C@H](C)[C@H](NC(=O)[C@H](Cc1ccc(O)cc1)NC(=O)[C@H](Cc1cnc[nH]1)NC(=O)[C@H](CCCN=C(N)N)NC(=O)[C@H](CC(C)C)NC(=O)[C@H](C)NC(=O)[C@@H](N)CO)C(=O)N[C@@H](CC(N)=O)C(=O)N[C@@H](CC(C)C)C(=O)N[C@H](C(=O)N[C@H](C(=O)N[C@@H](CCCN=C(N)N)C(=O)N[C@@H](CCC(N)=O)C(=O)N[C@@H](CCCN=C(N)N)C(=O)N[C@@H](Cc1ccc(O)cc1)C(N)=O)[C@@H](C)O)[C@@H](C)CC [NPY22-36, rat, human]
